Assay results as given in ChEMBL document CHEMBL4229566, “Discovery of ( S)-3-(3-(3,5-Dimethyl-1 H-pyrazol-1-yl)phenyl)-4-(( R)-3-(2-(5,6,7,8-tetrahydro-1,8-naphthyridin-2-yl)ethyl)pyrrolidin-1-yl)butanoic Acid, a Nonpeptidic αvβ6 Integrin Inhibitor for the Inhaled Treatment of Idiopathic Pulmonary Fibrosis” (J Med Chem, 2018).

Key:
[1] = biological target: T1, Integrin alpha-V/beta-6 (Homo sapiens, UniProt P06756+P18564)
Target sequence in this assay (P06756 31-889 limits assumed): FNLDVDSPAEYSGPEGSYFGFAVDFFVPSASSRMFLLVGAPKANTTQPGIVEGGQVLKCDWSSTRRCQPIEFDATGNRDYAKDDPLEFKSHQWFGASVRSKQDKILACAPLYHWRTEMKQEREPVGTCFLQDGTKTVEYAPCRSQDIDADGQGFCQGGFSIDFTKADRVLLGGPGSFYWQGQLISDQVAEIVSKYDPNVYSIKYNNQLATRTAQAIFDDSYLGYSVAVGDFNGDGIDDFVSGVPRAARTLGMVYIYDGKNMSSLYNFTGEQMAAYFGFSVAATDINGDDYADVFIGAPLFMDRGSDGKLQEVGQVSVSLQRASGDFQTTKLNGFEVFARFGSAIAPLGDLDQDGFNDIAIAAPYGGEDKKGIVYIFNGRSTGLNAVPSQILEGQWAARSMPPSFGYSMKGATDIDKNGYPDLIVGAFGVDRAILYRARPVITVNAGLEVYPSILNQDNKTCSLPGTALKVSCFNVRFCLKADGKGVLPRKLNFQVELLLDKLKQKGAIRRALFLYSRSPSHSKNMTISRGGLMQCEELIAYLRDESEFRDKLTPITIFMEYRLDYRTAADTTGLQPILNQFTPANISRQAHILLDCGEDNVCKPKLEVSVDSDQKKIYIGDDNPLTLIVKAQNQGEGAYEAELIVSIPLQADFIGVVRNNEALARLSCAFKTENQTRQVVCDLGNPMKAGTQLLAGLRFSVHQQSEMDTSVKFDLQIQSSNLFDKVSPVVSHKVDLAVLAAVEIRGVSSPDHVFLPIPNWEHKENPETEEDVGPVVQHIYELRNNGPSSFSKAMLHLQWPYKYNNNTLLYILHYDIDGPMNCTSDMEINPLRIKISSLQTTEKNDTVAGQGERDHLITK
Target sequence in this assay (P06756 891-1048 limits assumed): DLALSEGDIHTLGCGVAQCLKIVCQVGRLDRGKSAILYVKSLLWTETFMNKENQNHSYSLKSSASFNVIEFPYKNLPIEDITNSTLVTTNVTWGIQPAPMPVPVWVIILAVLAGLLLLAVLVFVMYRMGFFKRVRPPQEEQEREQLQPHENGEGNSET
Target sequence in this assay (P18564 22-788 limits assumed): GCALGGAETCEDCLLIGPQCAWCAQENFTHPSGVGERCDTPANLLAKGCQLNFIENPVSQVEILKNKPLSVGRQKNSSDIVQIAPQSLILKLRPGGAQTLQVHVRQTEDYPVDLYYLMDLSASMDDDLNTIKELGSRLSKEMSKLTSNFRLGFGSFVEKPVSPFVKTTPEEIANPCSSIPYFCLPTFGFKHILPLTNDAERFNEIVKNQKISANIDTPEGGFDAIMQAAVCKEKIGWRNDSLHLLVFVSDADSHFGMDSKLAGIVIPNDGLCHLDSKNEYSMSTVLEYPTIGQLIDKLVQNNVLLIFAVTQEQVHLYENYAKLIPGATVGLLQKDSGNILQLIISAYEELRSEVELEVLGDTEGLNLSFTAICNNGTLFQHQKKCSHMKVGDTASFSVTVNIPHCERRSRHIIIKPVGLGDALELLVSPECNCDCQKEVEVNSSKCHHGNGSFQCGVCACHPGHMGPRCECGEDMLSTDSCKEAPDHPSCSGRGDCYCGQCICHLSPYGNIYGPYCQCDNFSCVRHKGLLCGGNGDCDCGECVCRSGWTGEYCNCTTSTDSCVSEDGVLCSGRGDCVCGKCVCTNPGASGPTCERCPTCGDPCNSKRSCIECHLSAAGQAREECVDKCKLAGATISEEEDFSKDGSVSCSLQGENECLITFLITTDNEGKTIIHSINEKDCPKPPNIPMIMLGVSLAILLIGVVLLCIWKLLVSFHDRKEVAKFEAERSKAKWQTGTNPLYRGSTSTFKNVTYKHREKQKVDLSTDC

[2] = biological target: T1, Integrin alpha-V/beta-6; remark: listed apart in the source
Description: Binding affinity to human integrin alphaVbeta6 assessed as dissociation half life up to 48 hrs by liquid scintillation counting

[3] = biological target: T2, Voltage-gated inwardly rectifying potassium channel KCNH2 (Homo sapiens, UniProt Q12809)
T2 sequence (Q12809 whole entry): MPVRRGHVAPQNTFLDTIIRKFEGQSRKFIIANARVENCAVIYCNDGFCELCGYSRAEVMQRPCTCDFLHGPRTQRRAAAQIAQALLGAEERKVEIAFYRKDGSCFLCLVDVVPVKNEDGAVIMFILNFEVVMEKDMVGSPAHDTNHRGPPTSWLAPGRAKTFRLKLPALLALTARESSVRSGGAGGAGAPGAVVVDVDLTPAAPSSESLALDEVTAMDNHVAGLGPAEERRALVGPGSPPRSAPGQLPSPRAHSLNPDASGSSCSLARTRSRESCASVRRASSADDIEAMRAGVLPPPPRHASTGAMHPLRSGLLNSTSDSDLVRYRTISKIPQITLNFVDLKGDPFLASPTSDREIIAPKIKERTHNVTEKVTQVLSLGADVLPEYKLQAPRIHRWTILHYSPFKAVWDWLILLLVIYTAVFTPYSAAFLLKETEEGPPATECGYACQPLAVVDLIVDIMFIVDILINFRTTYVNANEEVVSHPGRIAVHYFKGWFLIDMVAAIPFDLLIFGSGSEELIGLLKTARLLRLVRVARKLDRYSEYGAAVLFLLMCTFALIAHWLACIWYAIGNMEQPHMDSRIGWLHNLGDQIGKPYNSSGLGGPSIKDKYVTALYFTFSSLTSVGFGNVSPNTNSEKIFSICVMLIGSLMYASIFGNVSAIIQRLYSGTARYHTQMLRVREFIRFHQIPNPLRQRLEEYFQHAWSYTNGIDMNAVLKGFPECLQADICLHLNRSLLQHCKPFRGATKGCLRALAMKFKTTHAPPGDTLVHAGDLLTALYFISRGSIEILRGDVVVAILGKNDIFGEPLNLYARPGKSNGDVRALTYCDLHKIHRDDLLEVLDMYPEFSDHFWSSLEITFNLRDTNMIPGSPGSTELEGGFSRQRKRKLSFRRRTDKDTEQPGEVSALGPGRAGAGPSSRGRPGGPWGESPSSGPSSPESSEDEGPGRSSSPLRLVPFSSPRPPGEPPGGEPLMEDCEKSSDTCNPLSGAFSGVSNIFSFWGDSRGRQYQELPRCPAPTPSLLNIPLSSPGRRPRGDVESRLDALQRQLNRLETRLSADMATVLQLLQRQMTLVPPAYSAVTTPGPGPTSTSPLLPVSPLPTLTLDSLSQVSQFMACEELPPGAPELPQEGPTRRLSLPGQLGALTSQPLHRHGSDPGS
Description: Inhibition of human ERG expressed in HEK293 cells by Barracuda automated patch clamp assay

[4] = biological target: T2, Voltage-gated inwardly rectifying potassium channel KCNH2; remark: listed apart in the source
Description: Inhibition of human ERG expressed in HEK293 cells by Q-patch assay

[5] = physchem; conditions: buffer, pH 7.4, logD
[6] = Protein binding in human blood at 1 ug/ml after 4 hrs by LC-MS/MS analysis; format: ADME, tissue-based; conditions: at 1 µg/mL, read-out: PB (converted)
[7] = Toxicity in rabbit cardiac ventricular wedge assessed as increase in QT interval prolongation at 1 to 3 uM; format: tissue-based, Oryctolagus cuniculus, Cardiac ventricle

SMILES	logD [5]	IC50 [3]	IC50 [4]	further results
N=C(N)Nc1cccc(C(=O)NCC(=O)NC(CC(=O)O)c2cc(Cl)cc(Cl)c2)c1 (centres undefined)	–	–	–	Ki [1]: 0.002 µM; T1/2 [2]: 5 min
Cc1nncn1-c1cccc([C@H](CC(=O)O)CN2CC[C@@H](CCc3ccc4c(n3)NCCC4)C2)c1	1.77	–	> 31.6 µM	–
O=C(O)C[C@H](CN1CC[C@@H](CCc2ccc3c(n2)NCCC3)C1)c1cccc(C2CCOCC2)c1	2.62	–	–	–
O=C(O)C[C@H](CN1CC[C@@H](CCc2ccc3c(n2)NCCC3)C1)c1cccc(N2CCOCC2)c1	2.27	–	–	–
O=C(O)C[C@H](CN1CC[C@@H](CCc2ccc3c(n2)NCCC3)C1)c1cccc(Br)c1	3.15	1.26 µM	–	–
O=C(O)C[C@H](CN1CC[C@@H](CCc2ccc3c(n2)NCCC3)C1)c1cccc(C2CC2)c1	–	–	–	Activity [7]: Dose-dependent effect
Cc1ccnn1-c1cccc([C@H](CC(=O)O)CN2CC[C@@H](CCc3ccc4c(n3)NCCC4)C2)c1	–	–	–	fraction unbound at 4 h, 1 ug/ml [6]: 0.1
O=C(O)C[C@H](CN1CC[C@@H](CCc2ccc3c(n2)NCCC3)C1)c1cccc(-n2cncn2)c1	1.95	> 50.1 µM	> 31.6 µM	fraction unbound at 4 h, 1 ug/ml [6]: 0.4

Continued, in another order:

logD [5]	SMILES	IC50 [3]	IC50 [4]	further results
2.07	O=C(O)C[C@H](CN1CC[C@@H](CCc2ccc3c(n2)NCCC3)C1)c1cccc(OC2COC2)c1	> 50.1 µM	> 31.6 µM	–
1.66	Cc1nc(C)n(-c2cccc([C@H](CC(=O)O)CN3CC[C@@H](CCc4ccc5c(n4)NCCC5)C3)c2)n1	> 50.1 µM	> 31.6 µM	–
2.53	Cc1cc(-c2cccc([C@H](CC(=O)O)CN3CC[C@@H](CCc4ccc5c(n4)NCCC5)C3)c2)[nH]n1	> 50.1 µM	25.1 µM	–
1.75	O=C(O)C[C@H](CN1CC[C@@H](CCc2ccc3c(n2)NCCC3)C1)c1cccc(-n2ccnn2)c1	> 50.1 µM	> 31.6 µM	fraction unbound at 4 h, 1 ug/ml [6]: 0.28
2.73	Cc1cc(C)n(-c2cc([C@H](CC(=O)O)CN3CC[C@@H](CCc4ccc5c(n4)NCCC5)C3)cc(N3CCOCC3)c2)n1	> 63.1 µM	–	–
